System: 1496 clinical isolates of E. coli
Assay: Phenotypic antibiotic susceptibility testing, MicroScan WalkAway plus System, Neg MIC 45 panel
Assay type: cell-based
Settings: for Phenotype of the E. coli isolates in words: 1496 E. coli isolates; for Measured Phenotype Susceptible (%) / Measured Phenotype Resistant (%): share of the 1496 E. coli isolates; for Measured Phenotype Resistant (%): resistant or intermediate combined as resistant
Description: Phenotypic antibiotic susceptibility testing was performed and an antibiotic response of resistant, intermediate or susceptible was assigned to each E. coli isolate per antibiotic based on minimal inhibitory concentrations as described in the MicroScan product insert. Phenotypic antibiotic susceptibility testing was performed on the 1496 E. coli isolates using the MicroScan WalkAway plus System and the Neg MIC 45 panel (P/N B1017-424) which covers 25 antibiotics. Cryopreserved isolates were sub-cultured twice on blood agar plates prior to antibiotic susceptibility testing. The MicroScan instrument was used to assign an antibiotic response of resistant, intermediate or susceptible for each isolate per antibiotic based on minimal inhibitory concentrations as described in the MicroScan product insert. Assignments of resistant or intermediate were combined and reported as resistant in this example. Assignments of susceptible are reported as such in this example.

Row | Compound | Phenotype of the E. coli isolates in words | Measured Phenotype Susceptible (%) | Measured Phenotype Resistant (%)
1 | NCC[C@H](O)C(=O)N[C@@H]1C[C@H](N)[C@@H](O[C@H]2O[C@H](CN)[C@@H](O)[C@H](O)[C@H]2O)[C@H](O)[C@H]1O[C@H]1O[C@H](CO)[C@@H](O)[C@H](N)[C@H]1O [Amikacin] | the vast majority of isolates exhibited phenotypic susceptibility | 94 | 6
2 | CC1(C)S[C@@H]2[C@H](NC(=O)[C@H](N)c3ccccc3)C(=O)N2[C@H]1C(=O)O [Ampicillin] | the vast majority of isolates exhibited phenotypic resistance | 3 | 97
3 | C[C@H]1[C@H](NC(=O)/C(=N\OC(C)(C)C(=O)O)c2csc(N)n2)C(=O)N1S(=O)(=O)O [Aztreonam] | – | 9 | 91
4 | Cc1nnc(SCC2=C(C(=O)O)N3C(=O)[C@@H](NC(=O)Cn4cnnn4)[C@H]3SC2)s1 [Cefazolin] | the vast majority of isolates exhibited phenotypic resistance | 5 | 95
5 | CO/N=C(\C(=O)N[C@@H]1C(=O)N2C(C(=O)[O-])=C(C[N+]3(C)CCCC3)CS[C@H]12)c1csc(N)n1 [Cefepime] | – | 10 | 90
6 | CO/N=C(\C(=O)N[C@@H]1C(=O)N2C(C(=O)O)=C(COC(C)=O)CS[C@H]12)c1csc(N)n1 [Cefotaxime] | – | 9 | 91
7 | CO[C@@]1(NC(=O)Cc2cccs2)C(=O)N2C(C(=O)O)=C(COC(N)=O)CS[C@@H]21 [Cefoxitin] | – | 79 | 21
8 | CC(C)(O/N=C(\C(=O)N[C@@H]1C(=O)N2C(C(=O)[O-])=C(C[n+]3ccccc3)CS[C@H]12)c1csc(N)n1)C(=O)O [Ceftazidime] | – | 9 | 91
9 | CO/N=C(\C(=O)N[C@@H]1C(=O)N2C(C(=O)O)=C(CSc3nc(=O)c(=O)[nH]n3C)CS[C@H]12)c1csc(N)n1 [Ceftriaxone] | – | 8 | 92
10 | CO/N=C(\C(=O)N[C@@H]1C(=O)N2C(C(=O)O)=C(COC(N)=O)CS[C@H]12)c1ccco1 [Cefuroxime] | – | 7 | 93
11 | C[C@@H](O)[C@H]1C(=O)N2C(C(=O)O)=C(S[C@@H]3CN[C@H](C(=O)Nc4cccc(C(=O)O)c4)C3)[C@H](C)[C@H]12 [Ertapenem] | the vast majority of isolates exhibited phenotypic susceptibility | 98 | 4
12 | C[C@@H](O)[C@H]1C(=O)N2C(C(=O)O)=C(SCCN=CN)C[C@H]12 [Imipenem] | – | 97 | 3
13 | C[C@H]1COc2c(N3CCN(C)CC3)c(F)cc3c(=O)c(C(=O)O)cn1c23 [Levofloxacin] | – | 19 | 81
14 | C[C@@H](O)[C@H]1C(=O)N2C(C(=O)O)=C(S[C@@H]3CN[C@H](C(=O)N(C)C)C3)[C@H](C)[C@H]12 [Meropenem] | the vast majority of isolates exhibited phenotypic susceptibility | 98 | 2
15 | CCN1CCN(C(=O)N[C@@H](C(=O)N[C@@H]2C(=O)N3[C@@H]2SC(C)(C)[C@@H]3C(=O)O)c2ccccc2)C(=O)C1=O [Piperacillin] | the vast majority of isolates exhibited phenotypic resistance | 4 | 96
16 | CN(C)[C@@H]1C(O)=C(C(N)=O)C(=O)[C@@]2(O)C(O)=C3C(=O)c4c(O)cccc4[C@@](C)(O)[C@H]3C[C@@H]12 [Tetracycline] | – | 32 | 68
17 | CN(C)c1cc(NC(=O)CNC(C)(C)C)c(O)c2c1C[C@H]1C[C@H]3[C@H](N(C)C)C(O)=C(C(N)=O)C(=O)[C@@]3(O)C(O)=C1C2=O [Tigecycline] | the vast majority of isolates exhibited phenotypic susceptibility | 99.6 | 0.4
18 | NC[C@H]1O[C@H](O[C@H]2[C@H](O)[C@@H](O[C@H]3O[C@H](CO)[C@@H](O)[C@H](N)[C@H]3O)[C@H](N)C[C@@H]2N)[C@H](N)C[C@@H]1O [Tobramycin] | – | 45 | 55
19 | Amoxicillin/K Clavulanate | – | 43 | 57
20 | Ampicillin/Sulbactam | – | 16 | 84
21 | Gentamicin | – | 61 | 39
22 | Piperacillin/Tazobactam | – | 84 | 16
23 | Ticarcillin/K Clavulanate | – | 56 | 44
24 | Trimethoprim/Sulfamethoxazole | – | 36 | 64

From patent publication US20170253917A1, “METHODS AND SYSTEMS FOR DETERMINING ANTIBIOTIC SUSCEPTIBILITY” (priority 2016, published 2017)
